Results: US20100267031A1, “Method of Screening for RAGE-Amyloid-Beta Peptide Interaction Inhibiting Materials” (priority 2007, published 2010)

Tested on: bEND.3 cells
Assay: Comparison of passage through intercellular space (standard materials, with or without mannitol)
Format: in vitro ADME, mouse
Conditions: wells treated with mannitol (0.8 M) vs not treated; 20 min intervals over 120 min
Description: The cells were seeded on the inserts of 24-well Transwell plates and cultured for 5 days as described above examples. F—Na (10 μM, Sigma, Cat No. 28803), FD4 (1 mM, Sigma, Cat No. FD4), and FD40 (25 μM, Sigma, Cat No. FD40S), all labeled with fluorescence (FITC), were used as standard materials for intercellular passage comparison. Mannitol (0.8 M), known to interfere with the formation of intercellular tight junctions, was added to some wells while other wells were not treated with mannitol. Thereafter, the standard materials were added to the wells, followed by monitoring the fluorescence intensity in the lower compartment of the Transwell plates at regular intervals of 20 min over 120 min.
F—Na, FD4 and FD40 were 376 Da, 4,000 Da and 40,000 Da in size, respectively. When tight junctions are formed, the materials which can pass between cells are limited by the sizes thereof. Thus, the standard materials may be used as positive or negative controls. For example, when tight junctions are well formed, FD40 differs in passage through intercellular spaces from F—Na and FD4 due to difference in […] size.

O=C([O-])c1ccccc1-c1c2ccc(=O)cc-2oc2cc([O-])ccc12.[Na+].[Na+] [F—Na]
fluorescence intensity in the lower compartment: higher intensities were detected in the wells treated with mannitol
